Here are results for 20 molecules from patent US20230121721A1, “MONOACYLGLYCEROL LIPASE INHIBITORS” (STICHTING HET NEDERLANDS KANKER INSTITUUT - ANTONI VAN …, priority 2020, published 2023).

The assay concerns the target T1, hMAGL (MAGL-overexpressing membrane preparations from transiently transfected HEK293T cells) (Homo sapiens, UniProt Q99685).
T1 construct: expressed in transfected cells; host or cells: HEK293T (transient transfection), membrane preparations
T1 sequence (Q99685 1-303): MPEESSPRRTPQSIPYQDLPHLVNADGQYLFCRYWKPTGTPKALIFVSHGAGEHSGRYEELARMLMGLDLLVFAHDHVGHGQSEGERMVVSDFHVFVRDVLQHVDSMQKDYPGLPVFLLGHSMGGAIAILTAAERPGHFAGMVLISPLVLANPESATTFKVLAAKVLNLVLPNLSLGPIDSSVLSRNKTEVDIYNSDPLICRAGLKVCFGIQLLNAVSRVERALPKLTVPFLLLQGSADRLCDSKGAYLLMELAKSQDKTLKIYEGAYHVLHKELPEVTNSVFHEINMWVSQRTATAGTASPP
Briefly: MAGL activity assay (2-AG hydrolysis, glycerol coupled to Amplifu Red fluorescence). The conditions noted are these: hMAGL-overexpressing HEK293T membranes, 25 μM 2-AG substrate, 20 min. inhibitor incubation. The class given is biochemical. The text has this: The MAGL activity assay is based on the production of glycerol from 2-arachidonoylglycerol (2-AG) hydrolysis by MAGL-overexpressing membrane preparations from transiently transfected HEK293T cells, as previously reported in van der Wel T et al., “A natural substrate-based fluorescence assay for inhibitor screening on diacylglycerol lipase”, J Lipid Res., 2015, 56(4), 927-35. The produced glycerol is coupled to the oxidation of commercially available Amplifu™ Red (Sigma-Aldrich Chemie N.V., Zwijndrecht, Netherlands) via a multi-enzyme cascade, resulting in a fluorescent signal from the dye resorufin.
Standard assays were performed in HEMNB buffer (50 mM HEPES pH 7.4, 1 mM EDTA, 5 mM MgCl2, 100 mM NaCl, 0.5% (w/v) BSA) in black, flat bottom 96-wells plates. Final protein concentration of membrane preparations from overexpressing hMAGL HEK293T cells was 1.5 μg/mL (0.3 μg per well). Inhibitors were added from 40× concentrated DMSO stocks. […] Final assay concentrations: 0.2 U/mL GK, GPO and HRP, 0.125 mM ATP, 10 μM Amplifu™ Red, 25 μM 2-AG, 5% DMSO, 0.5% ACN in a total volume of 200 μL.
For IC50 determination, the MAGL-overexpressing membranes were incubated with different inhibitor concentrations. Slopes of corrected fluorescence in time were determined in the linear interval of t=10 to t=35 min and then scaled to the corrected positive control of hMAGL-overexpressing membranes treated with vehicle (DMSO) as a 100% activity reference point. The data was exported to GraphPad Prism 5.0 and analysed in a non-linear dose-response analysis with variable slope.

Molecule `CCOC(=O)CSc1ccc(C(=O)N2CCN(c3cccc(Cl)c3)[C@H](C)[C@H]2C)cc1Cl` (racemic) [Example 52, (±) Ethyl 2-((2-chloro-4-(4-(3-chlorophenyl)-trans-2,3-dimethylpiperazine-1-carbonyl)phenyl)thio)acetate] showed an IC50 of over 10000 nM.

The molecule `CCOC(=O)CS(=O)(=O)c1ccc(C(=O)N2CCN(c3cccc(Cl)c3)[C@H](C)[C@H]2C)cc1Cl` (racemic) [Example 53, (±) Ethyl 2-((2-chloro-4-(4-(3-chlorophenyl)-trans-2,3-dimethylpiperazine-1-carbonyl)phenyl)sulfonyl)acetate] had a half-maximal inhibitory concentration (IC50) of 339 nM.

For the molecule `CCOC(=O)C[S+]([O-])c1ccc(CN2CCN(c3cccc(Cl)c3)[C@H](C)[C@H]2C)cc1Cl` (mixture of isomers) [Example 54, (±) Ethyl 2-((2-chloro-4-((4-(3-chlorophenyl)-trans-2,3-dimethylpiperazin-1-yl)methyl)phenyl)sulfinyl)acetate], the IC50 is 6.17 nM.

`CCOC(=O)CC(=O)c1ccc(C(=O)N2CCN(c3cccc(Cl)c3)[C@H](C)[C@H]2C)cc1Cl` (racemic) [Example 55, (±) Ethyl 3-(2-chloro-4-(4-(3-chlorophenyl)-trans-2,3-dimethylpiperazine-1-carbonyl)phenyl)-3-oxopropanoate] had an IC50 of 1150 nM. This IC50 is about 190-fold higher than that of the molecule before.

As to `CCC(C)OC(=O)C[S+]([O-])c1ccc(C(=O)N2CCN(c3cccc(Cl)c3)[C@H](C)[C@H]2C)cc1Cl` (mixture of isomers) [Example 57, (±) sec-Butyl 2-((2-chloro-4-(4-(3-chlorophenyl)-trans-2,3-dimethylpiperazine-1-carbonyl)phenyl)sulfinyl)acetate], the IC50 is 3.89 nM.

The molecule `C[C@@H]1[C@@H](C)N(c2cccc(Cl)c2)CCN1C(=O)c1ccc([S+]([O-])CC(=O)OC2CCC2)c(Cl)c1` (mixture of isomers) [Example 58, (±) Cyclobutyl 2-((2-chloro-4-(4-(3-chlorophenyl)-trans-2,3-dimethylpiperazine-1-carbonyl)phenyl)sulfinyl)acetate] showed an IC50 of 4.17 nM.

`C[C@@H]1[C@@H](C)N(c2cccc(Cl)c2)CCN1C(=O)c1ccc([S+]([O-])CC(=O)OC2CCCCC2)c(Cl)c1` (mixture of isomers) [Example 60, (±) Cyclohexyl 2-((2-chloro-4-(4-(3-chlorophenyl)-trans-2,3-dimethylpiperazine-1-carbonyl)phenyl)sulfinyl)acetate] gave an IC50 of 2.95 nM.

In the case of `COCCOC(=O)C[S+]([O-])c1ccc(C(=O)N2CCN(c3cccc(Cl)c3)[C@@H](C)[C@@H]2C)cc1Cl` (mixture of isomers) [Example 65, (±) 2-Methoxyethyl 2-((2-chloro-4-(4-(3-chlorophenyl)-trans-2,3-dimethylpiperazine-1-carbonyl)phenyl)sulfinyl)acetate], the IC50 was 9.12 nM.

The molecule `COCC(C)OC(=O)C[S+]([O-])c1ccc(C(=O)N2CCN(c3cccc(Cl)c3)[C@@H](C)[C@@H]2C)cc1Cl` (mixture of isomers) [Example 66, (±) 1-Methoxypropan-2-yl 2-((2-chloro-4-(4-(3-chlorophenyl)-trans-2,3-dimethylpiperazine-1-carbonyl)phenyl)sulfinyl)acetate] gave an IC50 of 46.8 nM.

Regarding `C[C@H]1[C@H](C)N(c2cccc(Cl)c2)CCN1C(=O)c1ccc([S+]([O-])CC(=O)OC2CCOCC2)c(Cl)c1` (mixture of isomers) [Example 67, (±) tetraHydro-2H-pyran-4-yl 2-((2-chloro-4-(4-(3-chlorophenyl)-trans-2,3-dimethylpiperazine-1-carbonyl)phenyl)sulfinyl)acetate], the IC50 is 12.9 nM.

`CCOC(=O)C[S+]([O-])c1ccc(C(=O)N2CCN(c3cncc(Cl)c3)[C@@H](C)[C@@H]2C)cc1Cl` (mixture of isomers) [Example 68, (±) Ethyl 2-((2-chloro-4-(-4-(5-chloropyridin-3-yl)-trans-2,3-dimethylpiperazine-1-carbonyl)phenyl)sulfinyl)acetate]: the IC50 was 20.9 nM.

On to `CCOC(=O)C[S+]([O-])c1ccc(C(=O)N2CCN(c3ccnc(Cl)c3)[C@@H](C)[C@@H]2C)cc1Cl` (mixture of isomers) [Example 69, (±) Ethyl 2-((2-chloro-4-(-4-(2-chloropyridin-4-yl)-trans-2,3-dimethylpiperazine-1-carbonyl)phenyl)sulfinyl) acetate], for which it took 87.1 nM to reach half-maximal inhibition (IC50).

In the case of `CCOC(=O)C[S+]([O-])c1ccc(C(=O)N2CCN(c3cccc(Cl)n3)[C@@H](C)[C@@H]2C)cc1Cl` (mixture of isomers) [Example 70, (±) Ethyl 2-((2-chloro-4-(-4-(6-chloropyridin-2-yl)-trans-2,3-dimethylpiperazine-1-carbonyl)phenyl)sulfinyl)acetate], the IC50 is 9.12 nM. Compared with the last molecule, the IC50 is about 9.6-fold lower.

In the case of `CCOC(=O)C[S+]([O-])c1ccc(C(=O)N2CCN(c3cc(Cl)ccn3)[C@@H](C)[C@@H]2C)cc1Cl` (mixture of isomers) [Example 71, (±) Ethyl 2-((2-chloro-4-(-4-(4-chloropyridin-2-yl)-trans-2,3-dimethylpiperazine-1-carbonyl)phenyl)sulfinyl)acetate], the IC50 was 8.71 nM.

Consider `C[C@H]1[C@H](C)N(c2cccc(Cl)c2)CCN1C(=O)c1ccc(SCC(=O)C(F)(F)F)c(Cl)c1` (racemic) [Example 72, (±) 3-((2-Chloro-4-(4-(3-chlorophenyl)-trans-2,3-dimethylpiperazine-1-carbonyl)phenyl)thio)-1,1,1-trifluoropropan-2-one], for which the IC50 was 20.9 nM.

`C[C@H]1[C@H](C)N(c2cccc(Cl)c2)CCN1C(=O)c1ccc([S+]([O-])CC(=O)C(F)(F)F)c(Cl)c1` (mixture of isomers) [Example 73, (±) 3-((2-Chloro-4-(4-(3-chlorophenyl)-trans-2,3-dimethylpiperazine-1-carbonyl)phenyl)sulfinyl)-1,1,1-trifluoropropan-2-one]: half-maximal inhibition (IC50) required 7.41 nM.

Regarding `C[C@H]1[C@H](C)N(c2cccc(Cl)c2)CCN1C(=O)c1ccc([S+]([O-])CC(=O)c2ncco2)c(Cl)c1` (mixture of isomers) [Example 74, (±) 2-((2-Chloro-4-(4-(3-chlorophenyl)-trans-2,3-dimethylpiperazine-1-carbonyl)phenyl)sulfinyl)-1-(oxazol-2-yl)ethan-1-one], the IC50 is 204 nM.

As for `C[C@H]1[C@H](C)N(c2cccc(Cl)c2)CCN1C(=O)c1ccc([S+]([O-])CC(=O)c2nccs2)c(Cl)c1` (mixture of isomers) [Example 75, (±) 2-((2-Chloro-4-(4-(3-chlorophenyl)-trans-2,3-dimethylpiperazine-1-carbonyl)phenyl)sulfinyl)-1-(thiazol-2-yl)ethan-1-one], the IC50 was 234 nM.

`Cc1cnc(C(=O)C[S+]([O-])c2ccc(C(=O)N3CCN(c4cccc(Cl)c4)[C@@H](C)[C@@H]3C)cc2Cl)o1` (mixture of isomers) [Example 76, (±) 2-((2-Chloro-4-(4-(3-chlorophenyl)-trans-2,3-dimethylpiperazine-1-carbonyl)phenyl)sulfinyl)-1-(5-methyloxazol-2-yl)ethan-1-one] gave an IC50 of 380 nM.

`C[C@H]1[C@H](C)N(c2cccc(Cl)c2)CCN1C(=O)c1ccc([S+]([O-])CC(=O)C(F)F)c(Cl)c1` (mixture of isomers) [Example 77, (±) 3-((2-Chloro-4-(4-(3-chlorophenyl)-trans-2,3-dimethylpiperazine-1-carbonyl)phenyl)sulfinyl)-1,1-difluoropropan-2-one]: it took 2.34 nM to reach half-maximal inhibition (IC50).

Broadly, the IC50 is the concentration needed to halve the response being measured. Read a low IC50 as greater potency.
